# Test results as given in patent publication US20230312564A1, “AROMATIC RING-LACTAM COMPOUND, PREPARATION METHOD THEREFOR AND USE THEREOF” (SHANGHAI RINGENE BIOPHARMA CO., LTD., priority 2020, published 2023).
# pIC50: −log10 of the molar value. Where two headings read alike, the source gives them in different places.
# Legend:
# [1] = test system: Colo-205 cells; experiment: Colo-205 tumor cell proliferation, CCK-8, 72 hours; assay type: cell-based; details: for pIC50: 72 hours, CCK-8, numeric values, read-out: Colo-205 IC50; for cell proliferation inhibitory activity (in words): Colo-205
# Description: 1. Test method: Colo-205 cells (ATCC) in logarithmic growth phase were inoculated into a 96-well culture plate at an appropriate density with 90 μL per well. After overnight culture, different concentrations of the compound were added and acted for 72 hours, and a solvent control group (negative control) was set. After the compound was acted on cells for 72 hours, the effect of the compound on cell proliferation was detected by the cell counting kit CCK-8 (Dojindo), and 10 μL of CCK-8 reagent was added to each well. After the plate was placed in a 37° C. incubator for 2 to 4 hours, a full-wavelength microplate reader SpectraMax 190 was adopted for obtaining the readings with a measured wavelength of 450 nm. […] The IC50 value was obtained by four-parameter regression with the software attached to the microplate reader.
# [2] = Liver microsomal metabolic stability, dog; assay type: in vitro ADME; details: 0.5 mg/mL microsomes, 1 μM compound, NADPH; for half-life at 1 μM: liver microsomes, read-out: Liver microsomal stability T1/2
# Description: (§1) The reaction was stopped with tinidazole-containing acetonitrile at 0 min, 5 min, 10 min and 30 min, respectively. After vortexing for 10 min and centrifuging at 15,000 rmp for 10 min, 50 μL of the supernatant was injected into a 96-well plate. The metabolic stability of the compound was calculated by determining the relative reduction of the drug, calculated as half-life T1/2.
# [3] = Liver microsomal metabolic stability, rat; assay type: in vitro ADME; details: 0.5 mg/mL microsomes, 1 μM compound, NADPH; for half-life at 1 μM: liver microsomes, read-out: Liver microsomal stability T1/2
# Description: as §1
# [4] = Liver microsomal metabolic stability, mouse; assay type: in vitro ADME; details: 0.5 mg/mL microsomes, 1 μM compound, NADPH; for half-life at 1 μM: liver microsomes, read-out: Liver microsomal stability T1/2
# Description: as §1
# [5] = Liver microsomal stability, comparisons in words across species; assay type: in vitro ADME; details: for stability of different kinds of liver microsomes (in words): different species, versus the comparative compounds
# Description: as §1
# [6] = Liver microsomal metabolic stability, human; assay type: in vitro ADME; details: 0.5 mg/mL microsomes, 1 μM compound, NADPH; for half-life at 1 μM: liver microsomes, read-out: Liver microsomal stability T1/2
# Description: as §1
# [7] = target: T1, ERK1/2 kinase; experiment: ERK1/2 kinase (Carna) inhibitory activity, Caliper mobility shift; assay type: biochemical; details: for pIC50: numeric values, read-out: ERK½ IC50
# T1 construct: fused on or other part: Carna's ERK products carry a GST tag by vendor knowledge
# Description: (1) Preparation of 1×Kinase buffer; (2) preparation of compound concentration gradient: the initial test concentration of the tested compound was 10 μM, which was 3-fold diluted to 10 concentrations, and a duplicate test was conducted, and then the tested compound was diluted in a 96 well plate to a 100-fold final concentration of 10 different concentrations of solution. […] Log (inhibitor) vs. response—Variable slope of the analysis software GraphPad Prism 5 was used to fit the dose-effect curve to obtain the IC50 value of each compound on the enzyme activity.
# 2. […] (A<10 nM, 10 nM≤B<200 nM, C≥200 nM)
# [8] = test system: Colo-205 transplanted tumor; experiment: Growth inhibition of nude mice Colo-205 transplanted tumor; assay type: in vivo; details: for effect on the tumor weight (in words) / tumor growth of Colo-205 transplanted tumor nude mice (in words): dose of 50 mg/kg or 25 mg/kg
# Description: The tumor tissue in the vigorous growth phase was cut into about 1.5 mm^3 and inoculated subcutaneously in the right axilla of nude mice under sterile conditions. The diameter of subcutaneous transplanted tumors in nude mice was measured with a vernier caliper, and the mice were randomly divided into groups when the average tumor volume reached about 130 mm^3. The embodiment compounds (injection water containing 1% Tween 80 were configured to a desired concentration for later use) were orally administered daily at a given dose for three consecutive weeks, and the solvent control group was administered with the same amount of solvent. During the whole test, the diameter of transplanted tumor was measured twice a week, and the mice were weighed at the same time. The calculation formula of tumor volume (TV) is expressed as TV=1/2×a×b^2, wherein a and b represent length and width, respectively. The relative tumor volume (RTV) was calculated according to the measurement results, and the calculation formula is RTV=Vt/V0, wherein V0 is the tumor volume measured when administered in separate cages (i.e., d0), and Vt is the tumor volume at the time of each measurement.
# [9] = target: T2, CYP1A2 (Homo sapiens, UniProt P05177); experiment: Direct inhibition test (DI test) in human liver microsomes, CYP1A2; details: microsomes
# T2 sequence (P05177 1-516): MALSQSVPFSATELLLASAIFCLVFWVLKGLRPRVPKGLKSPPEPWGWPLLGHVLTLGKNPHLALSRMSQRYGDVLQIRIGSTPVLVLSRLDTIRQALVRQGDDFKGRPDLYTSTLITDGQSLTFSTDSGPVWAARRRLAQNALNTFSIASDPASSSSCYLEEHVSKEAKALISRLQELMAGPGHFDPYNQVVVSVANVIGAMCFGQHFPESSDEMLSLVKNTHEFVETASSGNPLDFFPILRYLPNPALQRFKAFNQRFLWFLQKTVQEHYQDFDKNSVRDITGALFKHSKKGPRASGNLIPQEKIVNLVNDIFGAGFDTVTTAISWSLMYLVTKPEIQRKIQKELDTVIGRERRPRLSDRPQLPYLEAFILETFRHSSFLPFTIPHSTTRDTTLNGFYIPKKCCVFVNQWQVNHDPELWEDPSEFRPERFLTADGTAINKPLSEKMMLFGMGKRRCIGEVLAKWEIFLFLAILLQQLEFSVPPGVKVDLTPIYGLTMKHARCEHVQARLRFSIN
# Description: (2) Direct inhibition test (DI test): A system containing 100 μL of human liver microsomes (final concentration of 0.2 mg/mL) was subjected to a direct inhibition incubation, and the system contained NADPH (final concentration of 1 mM), 10 μM compound, positive inhibitor cocktail (10 μM ketoconazole, 10 μM quinidine, 100 μM sulfaphenazole, 10 μM α-naphthoflavone, 1,000 μM tranylcypromine), negative control (BPS of 0.1% DMSO), and mixed probe substrates (10 μM midazolam, 100 μM testosterone, 10 μM dextromethorphan, […], 100 μM phenacetin, 100 μM mephenytoin). After 20 minutes of incubation, the reaction was stopped. The relative activity of the enzyme was calculated by measuring the relative production of metabolites.
# [10] = In-vivo pharmacokinetic parameters in mice; set-up: species or system Balb-c mice
# Description: (§2) Six male SPF grade SD rats or Balb-c mice (Shanghai Sipple-Bikai Laboratory Animal) were divided into two groups, and the tested compounds were prepared into appropriate solutions or suspensions; one group was administered intravenously (with a dose of 1 mg/kg), and the other group was administered orally (with a dose of 5 mg/kg). Blood samples were collected by jugular vein puncture, and each sample was collected with a volume of about 0.2 mL/time point, and heparin sodium was used for anticoagulation. The time points of blood collection were listed below: 5, 15 and 30 min […], 1, 2, 4, 6, 8 and 24 h after administration; the collected blood samples were placed on ice and centrifuged to separate plasma (centrifugation conditions: 8,000 rpm, 6 min, 2 to 8° C.), and the collected plasma was stored at −80° C. before analysis. Plasma samples were analyzed by LC-MS/MS.
# (§3) The pharmacokinetic parameters such as AUC0-t, AUC0-∞, MRT0-∞, Cmax, Tmax, T1/2 and Vd of the tested compounds and their mean values and standard deviations were calculated by the pharmacokinetic calculation software WinNonlin5.2 non-compartmental model according to the plasma concentration data. In addition, the bioavailability (F) was calculated by the following formula.
# (§4) For samples with concentrations below the lower limit of quantitation, while pharmacokinetic parameter calculations were performed, samples sampled before Cmax was reached should be calculated as a zero value and samples sampled after Cmax was reached should be calculated as below limit of quantitation (BLQ).
# [11] = In-vivo pharmacokinetic parameters in SD rats
# Description: as §2, §3, §4
# [12] = male, Balb-c, mouse, plasma, IV, 1 mg/kg
# [13] = male, Balb-c, mouse, plasma, PO, 5 mg/kg
# [14] = male, rat, plasma, 1 mg/kg, IV, 1 mpk
# [15] = male, rat, plasma, 5 mg/kg, PO, 5 mpk
compound,measurement,setting,value
C[C@H](C(=O)N[C@H](CO)c1cccc(Cl)c1)N1Cc2ccc(-c3nc(NC4CCOCC4)ncc3Cl)nc2C1=O [Embodiment 21],pIC50,"[1]; Homo sapiens, COLO 205",7.04
same,half-life at 1 μM,[2],78 min
same,half-life at 1 μM,[3],13 min
same,half-life at 1 μM,[4],234 min
same,stability of different kinds of liver microsomes (in words),[5],significant advantages
same,half-life at 1 μM,[6],62 min
same,pIC50,[7],8.28
Cc1cccc([C@@H](CO)NC(=O)[C@@H](C)N2Cc3ccc(-c4nc(NC5CCOCC5)ncc4F)c(F)c3C2=O)c1 [Embodiment 31],pIC50,[1],7.76
same,cell proliferation inhibitory activity (in words),[1],strong cell proliferation inhibitory activity
same,Liver microsomal stability T1/2,[2],122 min
same,Liver microsomal stability T1/2,[3],17 min
same,Liver microsomal stability T1/2,[4],17 min
same,effect on the tumor weight (in words),[8],no significant effect on the tumor weight
same,tumor growth of Colo-205 transplanted tumor nude mice (in words),[8],significantly inhibited the tumor growth
same,pIC50,[9],< 5.00
same,stability of different kinds of liver microsomes (in words),[5],significant advantages
same,Liver microsomal stability T1/2,[6],13 min
same,enzyme inhibitory activity (in words),[7],extremely strong enzyme inhibitory activity
same,pIC50,[7],9.05
C[C@H](C(=O)N[C@H](CO)c1cccc(Cl)c1)N1Cc2ccc(-c3nc(NC4CCOCC4)ncc3Cl)c(F)c2C1=O [Embodiment 34],pIC50,[1],7.46
same,cell proliferation inhibitory activity (in words),[1],strong cell proliferation inhibitory activity
same,Liver microsomal stability T1/2,[2],75 min
same,Liver microsomal stability T1/2,[3],19 min
same,Liver microsomal stability T1/2,[4],12 min
same,stability of different kinds of liver microsomes (in words),[5],significant advantages
same,Liver microsomal stability T1/2,[6],18 min
same,pIC50,[7],9.10
C[C@H](C(=O)N[C@H](CO)c1cccc(Cl)c1)N1Cc2ccc(-c3nc(NC4CCOCC4)ncc3F)c(F)c2C1=O [Embodiment 37],pIC50,[1],8.36
same,cell proliferation inhibitory activity (in words),[1],strong cell proliferation inhibitory activity
same,F,[10]; PO 5 mg/kg vs IV 1 mg/kg,54%
same,AUC(0-inf),[10]; [12],0.586 µM·h
same,AUC(0-t),[10]; [12],0.583 µM·h
same,MRT inf,[10]; [12],18 min
same,clearance,[10]; [12],50 mL/min/kg
same,half-life,[10]; [12],48 min
same,Vd,"[10]; male, Balb-c, mouse, plasma, IV, 1 mg/kg, read-out: Vss",0.9 L/kg
same,AUC(0-inf),[10]; [13],1.58 µM·h
same,AUC(0-t),[10]; [13],1.57 µM·h
same,Cmax,[10]; [13],1680 nM
same,Tmax,[10]; [13],18 min
same,half-life,[10]; [13],66 min
same,Liver microsomal stability T1/2,[2],27 min
same,Liver microsomal stability T1/2,[3],14 min
same,Liver microsomal stability T1/2,[4],12 min
same,T/C,"[8]; 50 mg/kg, qdx21, po",28.3%
same,Initial weight (D0),"[8]; 50 mg/kg, qdx21, po, D0",23.3 g
same,Terminal weight (D21),"[8]; 50 mg/kg, qdx21, po, D21",24.5 g
same,Initial tumor volume,"[8]; 50 mg/kg, qdx21, po, initial",95 ± 19 mm^3
same,Terminal tumor volume,"[8]; 50 mg/kg, qdx21, po, terminal",285 ± 137 mm^3
same,effect on the tumor weight (in words),[8],no significant effect on the tumor weight
same,tumor growth of Colo-205 transplanted tumor nude mice (in words),[8],significantly inhibited the tumor growth
same,stability of different kinds of liver microsomes (in words),[5],significant advantages
same,Liver microsomal stability T1/2,[6],11 min
same,pIC50,[7],> 9.00
same,F,[11]; PO 5 mpk vs IV 1 mpk,17%
same,AUC(0-inf),[11]; [14],0.538 µM·h
same,AUC(0-t),[11]; [14],0.536 µM·h
same,MRT inf,[11]; [14],18 min
same,clearance,[11]; [14],54 mL/min/kg
same,half-life,[11]; [14],48 min
same,Vd,"[11]; male, rat, plasma, 1 mg/kg, IV, 1 mpk, read-out: Vss",0.8 L/kg
same,AUC(0-inf),[11]; [15],0.452 µM·h
same,AUC(0-t),[11]; [15],0.446 µM·h
same,Cmax,[11]; [15],396 nM
same,Tmax,[11]; [15],18 min
same,half-life,[11]; [15],66 min
COc1cc(F)cc([C@@H](CO)NC(=O)[C@@H](C)N2Cc3ccc(-c4nc(NC5CCOCC5)ncc4Cl)c(F)c3C2=O)c1 [Embodiment 33],pIC50,[1],7.85
same,cell proliferation inhibitory activity (in words),[1],strong cell proliferation inhibitory activity
same,Liver microsomal stability T1/2,[2],51 min
same,Liver microsomal stability T1/2,[3],17 min
same,Liver microsomal stability T1/2,[4],10 min
same,pIC50,[9],< 5.00
same,stability in liver microsomes (in words),"[5]; mouse, rat and human, compared with comparative compound 5",significantly improved
same,Liver microsomal stability T1/2,[6],18 min
same,enzyme inhibitory activity (in words),[7],extremely strong enzyme inhibitory activity
same,pIC50,[7],9.05
"COc1cc(F)cc([C@@H](CO)NC(=O)[C@@H](C)N2Cc3ccc(-c4nc(NC5CCOCC5)ncc4Cl)cc3C2=O)c1 [Comparative compound 5, (R)-2-(6-(5-Chloro-2-((tetrahydro-2H-pyran-4-yl)amino)pyrimidin-4-yl)-1-oxoisoindolin-2-yl)-N—((S)-1-(3-fluoro-5-methoxyphenyl)-2-hydroxyethyl)propanamide, reference compound]",half-life at 1 μM,[2],41 min
same,half-life at 1 μM,[3],3 min
same,half-life at 1 μM,[4],15 min
same,half-life at 1 μM,[6],3 min
